Reference: PubChem BioAssay (NCI)
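Five compound concentrations were applied to cells in 96-well plates for 48 hours; endpoints were derived by simple linear interpolation of the resulting dose-response curve. TGI is the concentration that stops growth completely.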

How the values were obtained:
Test in all cases: DTP human tumour cell line panel, 48 h
786-0 renal = system: 786-0 renal
A498 renal = system: A498 renal
A549 NSCLC = system: A549 NSCLC
ACHN renal = system: ACHN renal
BT-549 breast = system: BT-549 breast
CAKI-1 renal = system: CAKI-1 renal
COLO 205 colon = system: COLO 205 colon
DU-145 prostate = system: DU-145 prostate
EKVX NSCLC = system: EKVX NSCLC
HCT-116 colon = system: HCT-116 colon
HCT-15 colon = system: HCT-15 colon
HOP-62 NSCLC = system: HOP-62 NSCLC
HOP-92 NSCLC = system: HOP-92 NSCLC
HS 578T breast = system: HS 578T breast
HT29 colon = system: HT29 colon
IGROV1 ovarian = system: IGROV1 ovarian
K-562 leukemia = system: K-562 leukemia
KM12 colon = system: KM12 colon
LOX IMVI melanoma = system: LOX IMVI melanoma
M14 melanoma = system: M14 melanoma
MALME-3M melanoma = system: MALME-3M melanoma
MCF7 breast = system: MCF7 breast
MDA-MB-231 breast = system: MDA-MB-231 breast
MDA-MB-435 = system: MDA-MB-435
MDA-N = system: MDA-N
MOLT-4 leukemia = system: MOLT-4 leukemia
NCI-H226 lung = system: NCI-H226 lung
NCI-H23 lung = system: NCI-H23 lung
NCI-H460 lung = system: NCI-H460 lung
NCI-H522 lung = system: NCI-H522 lung
NCI/ADR-RES ovarian = system: NCI/ADR-RES ovarian
OVCAR-3 ovarian = system: OVCAR-3 ovarian
OVCAR-4 ovarian = system: OVCAR-4 ovarian
OVCAR-5 ovarian = system: OVCAR-5 ovarian
OVCAR-8 ovarian = system: OVCAR-8 ovarian
PC-3 prostate = system: PC-3 prostate
RPMI-8226 leukemia = system: RPMI-8226 leukemia
RXF 393 renal = system: RXF 393 renal
SF-268 CNS = system: SF-268 CNS
SF-295 CNS = system: SF-295 CNS
SF-539 CNS = system: SF-539 CNS
SK-MEL-2 melanoma = system: SK-MEL-2 melanoma
SK-MEL-28 melanoma = system: SK-MEL-28 melanoma
SK-MEL-5 melanoma = system: SK-MEL-5 melanoma
SK-OV-3 ovarian = system: SK-OV-3 ovarian
SN12C renal = system: SN12C renal
SNB-19 CNS = system: SNB-19 CNS
SNB-75 CNS = system: SNB-75 CNS
SR leukemia = system: SR leukemia
SW-620 colon = system: SW-620 colon
T-47D breast = system: T-47D breast
TK-10 renal = system: TK-10 renal
U251 CNS = system: U251 CNS
UACC-257 melanoma = system: UACC-257 melanoma
UACC-62 melanoma = system: UACC-62 melanoma
UO-31 renal = system: UO-31 renal
CCRF-CEM leukemia = system: CCRF-CEM leukemia
HCC-2998 colon = system: HCC-2998 colon

Q: What does the source list for `O=[N+]([O-])c1ccccc1N=Nc1c(O)[nH]c2ccc(S(=O)(=O)O)cc12`?
A: TGI (786-0 renal): > 100 µM; TGI (A498 renal): > 100 µM; TGI (A549 NSCLC): > 100 µM; TGI (ACHN renal): > 100 µM; TGI (BT-549 breast): > 100 µM; TGI (CAKI-1 renal): > 100 µM; TGI (COLO 205 colon): > 100 µM; TGI (DU-145 prostate): > 100 µM; TGI (EKVX NSCLC): > 100 µM; TGI (HCT-116 colon): > 100 µM; TGI (HCT-15 colon): > 100 µM; TGI (HOP-62 NSCLC): > 100 µM; TGI (HOP-92 NSCLC): > 100 µM; TGI (HS 578T breast): > 100 µM; TGI (HT29 colon): > 100 µM; TGI (IGROV1 ovarian): > 100 µM; TGI (K-562 leukemia): > 100 µM; TGI (KM12 colon): > 100 µM; TGI (LOX IMVI melanoma): > 100 µM; TGI (M14 melanoma): > 100 µM; TGI (MALME-3M melanoma): > 100 µM; TGI (MCF7 breast): > 100 µM; TGI (MDA-MB-231 breast): > 100 µM; TGI (MDA-MB-435): > 100 µM; TGI (MDA-N): > 100 µM; TGI (MOLT-4 leukemia): > 100 µM; TGI (NCI-H226 lung): > 100 µM; TGI (NCI-H23 lung): > 100 µM; TGI (NCI-H460 lung): > 100 µM; TGI (NCI-H522 lung): > 100 µM; TGI (NCI/ADR-RES ovarian): > 100 µM; TGI (OVCAR-3 ovarian): > 100 µM; TGI (OVCAR-4 ovarian): > 100 µM; TGI (OVCAR-5 ovarian): > 100 µM; TGI (OVCAR-8 ovarian): > 100 µM; TGI (PC-3 prostate): > 100 µM; TGI (RPMI-8226 leukemia): > 100 µM; TGI (RXF 393 renal): > 100 µM; TGI (SF-268 CNS): > 100 µM; TGI (SF-295 CNS): > 100 µM; TGI (SF-539 CNS): > 100 µM; TGI (SK-MEL-2 melanoma): > 100 µM; TGI (SK-MEL-28 melanoma): > 100 µM; TGI (SK-MEL-5 melanoma): > 100 µM; TGI (SK-OV-3 ovarian): > 100 µM; TGI (SN12C renal): > 100 µM; TGI (SNB-19 CNS): > 100 µM; TGI (SNB-75 CNS): > 100 µM; TGI (SR leukemia): > 100 µM; TGI (SW-620 colon): > 100 µM; TGI (T-47D breast): > 100 µM; TGI (TK-10 renal): > 100 µM; TGI (U251 CNS): > 100 µM; TGI (UACC-257 melanoma): > 100 µM; TGI (UACC-62 melanoma): > 100 µM; TGI (UO-31 renal): > 100 µM

Q: Which TGI (786-0 renal) does the source give for `OC/C=C/[C@H](OCc1ccccc1)[C@H](/C=C/CO)OCc1ccccc1` here?
A: > 100 µM

Q: And the TGI (A498 renal)?
A: > 100 µM

Q: What about the TGI (A549 NSCLC) of the same molecule?
A: > 100 µM

Q: And the TGI (ACHN renal)?
A: > 100 µM

Q: And the TGI (BT-549 breast)?
A: > 100 µM

Q: What about the TGI (CAKI-1 renal) of the same molecule?
A: > 100 µM

Q: What about the TGI (CCRF-CEM leukemia) of the same molecule?
A: 51.4 µM

Q: And the TGI (COLO 205 colon)?
A: > 100 µM

Q: What about the TGI (DU-145 prostate) of the same molecule?
A: > 100 µM

Q: What about the TGI (EKVX NSCLC) of the same molecule?
A: > 100 µM

Q: What about the TGI (HCC-2998 colon) of the same molecule?
A: > 100 µM

Q: And the TGI (HCT-116 colon)?
A: > 100 µM

Q: And the TGI (HCT-15 colon)?
A: > 100 µM

Q: And the TGI (HOP-62 NSCLC)?
A: > 100 µM

Q: And the TGI (HOP-92 NSCLC)?
A: > 100 µM

Q: What about the TGI (HS 578T breast) of the same molecule?
A: > 100 µM

Q: And the TGI (HT29 colon)?
A: 59.9 µM

Q: And the TGI (IGROV1 ovarian)?
A: > 100 µM

Q: What about the TGI (K-562 leukemia) of the same molecule?
A: 54.7 µM

Q: And the TGI (KM12 colon)?
A: > 100 µM

Q: And the TGI (LOX IMVI melanoma)?
A: 47.4 µM

Q: And the TGI (M14 melanoma)?
A: > 100 µM

Q: What about the TGI (MALME-3M melanoma) of the same molecule?
A: > 100 µM

Q: What about the TGI (MCF7 breast) of the same molecule?
A: > 100 µM

Q: And the TGI (MDA-MB-231 breast)?
A: > 100 µM

Q: And the TGI (MDA-MB-435)?
A: > 100 µM

Q: What about the TGI (MDA-N) of the same molecule?
A: > 100 µM

Q: What about the TGI (MOLT-4 leukemia) of the same molecule?
A: 40 µM

Q: What about the TGI (NCI-H226 lung) of the same molecule?
A: > 100 µM

Q: And the TGI (NCI-H23 lung)?
A: > 100 µM

Q: And the TGI (NCI-H460 lung)?
A: > 100 µM

Q: What about the TGI (NCI-H522 lung) of the same molecule?
A: > 100 µM

Q: And the TGI (NCI/ADR-RES ovarian)?
A: > 100 µM

Q: And the TGI (OVCAR-3 ovarian)?
A: > 100 µM

Q: What about the TGI (OVCAR-4 ovarian) of the same molecule?
A: 95 µM

Q: And the TGI (OVCAR-5 ovarian)?
A: > 100 µM

Q: And the TGI (OVCAR-8 ovarian)?
A: > 100 µM

Q: And the TGI (PC-3 prostate)?
A: > 100 µM

Q: And the TGI (RPMI-8226 leukemia)?
A: 42.8 µM

Q: What about the TGI (RXF 393 renal) of the same molecule?
A: > 100 µM

Q: What about the TGI (SF-268 CNS) of the same molecule?
A: 94.6 µM

Q: What about the TGI (SF-295 CNS) of the same molecule?
A: > 100 µM

Q: What about the TGI (SF-539 CNS) of the same molecule?
A: > 100 µM

Q: And the TGI (SK-MEL-2 melanoma)?
A: > 100 µM

Q: What about the TGI (SK-MEL-28 melanoma) of the same molecule?
A: > 100 µM

Q: What about the TGI (SK-MEL-5 melanoma) of the same molecule?
A: > 100 µM

Q: What about the TGI (SK-OV-3 ovarian) of the same molecule?
A: > 100 µM

Q: What about the TGI (SN12C renal) of the same molecule?
A: > 100 µM

Q: And the TGI (SNB-19 CNS)?
A: 85.9 µM

Q: What about the TGI (SNB-75 CNS) of the same molecule?
A: > 100 µM

Q: And the TGI (SR leukemia)?
A: 39.6 µM

Q: What about the TGI (SW-620 colon) of the same molecule?
A: > 100 µM

Q: What about the TGI (T-47D breast) of the same molecule?
A: 88.8 µM

Q: What about the TGI (TK-10 renal) of the same molecule?
A: > 100 µM

Q: And the TGI (U251 CNS)?
A: 69.1 µM

Q: What about the TGI (UACC-257 melanoma) of the same molecule?
A: > 100 µM

Q: And the TGI (UACC-62 melanoma)?
A: > 100 µM

Q: What about the TGI (UO-31 renal) of the same molecule?
A: > 100 µM

Q: What does the source list for `CCOC(=O)Nc1cc(NC(/C=N/NC(C)=O)C(=O)OCC)c(OC)cc1NC(C)=O` (centres undefined)?
A: TGI (786-0 renal): > 100 µM; TGI (A498 renal): > 100 µM; TGI (A549 NSCLC): > 100 µM; TGI (ACHN renal): > 100 µM; TGI (BT-549 breast): > 100 µM; TGI (CAKI-1 renal): > 100 µM; TGI (CCRF-CEM leukemia): > 100 µM; TGI (COLO 205 colon): > 100 µM; TGI (DU-145 prostate): > 100 µM; TGI (EKVX NSCLC): > 100 µM; TGI (HCC-2998 colon): > 100 µM; TGI (HCT-116 colon): > 100 µM; TGI (HCT-15 colon): > 100 µM; TGI (HOP-62 NSCLC): > 100 µM; TGI (HOP-92 NSCLC): > 100 µM; TGI (HS 578T breast): > 100 µM; TGI (HT29 colon): > 100 µM; TGI (IGROV1 ovarian): > 100 µM; TGI (K-562 leukemia): > 100 µM; TGI (KM12 colon): > 100 µM; TGI (M14 melanoma): > 100 µM; TGI (MALME-3M melanoma): > 100 µM; TGI (MCF7 breast): > 100 µM; TGI (MDA-MB-231 breast): > 100 µM; TGI (MDA-MB-435): > 100 µM; TGI (MDA-N): > 100 µM; TGI (MOLT-4 leukemia): > 100 µM; TGI (NCI-H226 lung): > 100 µM; TGI (NCI-H23 lung): > 100 µM; TGI (NCI-H460 lung): > 100 µM; TGI (NCI/ADR-RES ovarian): > 100 µM; TGI (OVCAR-3 ovarian): > 100 µM; TGI (OVCAR-4 ovarian): > 100 µM; TGI (OVCAR-5 ovarian): > 100 µM; TGI (OVCAR-8 ovarian): > 100 µM; TGI (PC-3 prostate): > 100 µM; TGI (RPMI-8226 leukemia): > 100 µM; TGI (RXF 393 renal): > 100 µM; TGI (SF-268 CNS): > 100 µM; TGI (SF-295 CNS): > 100 µM; TGI (SK-MEL-2 melanoma): > 100 µM; TGI (SK-MEL-28 melanoma): > 100 µM; TGI (SK-MEL-5 melanoma): > 100 µM; TGI (SK-OV-3 ovarian): > 100 µM; TGI (SN12C renal): > 100 µM; TGI (SNB-19 CNS): > 100 µM; TGI (SNB-75 CNS): > 100 µM; TGI (SR leukemia): > 100 µM; TGI (SW-620 colon): > 100 µM; TGI (T-47D breast): > 100 µM; TGI (TK-10 renal): > 100 µM; TGI (U251 CNS): > 100 µM; TGI (UACC-257 melanoma): > 100 µM; TGI (UACC-62 melanoma): > 100 µM; TGI (UO-31 renal): > 100 µM
